Test results taken from patent EP0819689A1, “5-substituted (2H) chromenes” (Byk Gulden Lomberg Chemische Fabrik GmbH, priority 1996, dated 1998).

Test system: PDE IV
Assay: Inhibition of PDE IV activity (method of Bauer and Schwabe, adapted to microtitre plates)
Type: biochemical
Conditions: Hemmung der PDE IV-Aktivität
Text: Der Aktivitätstest wurde nach der Methode von Bauer und Schwabe durchgeführt, die auf Mikrotiterplatten adaptiert wurde (Naunyn-Schmiedeberg's Arch. Pharmacol. 1980, 311, 193-198). Hierbei erfolgt im ersten Schritt die PDE-Reaktion. In einem zweiten Schritt wird das entstandene 5'-Nukleotid durch eine 5'-Nukleotidase des Schlangengiftes von ophiophagus hannah (King Cobra) zum ungeladenen Nukleosid gespalten. Im dritten Schritt wird das Nukleosid auf Ionenaustauschsäulen vom verbliebenen geladenen Substrat getrennt. Die Säulen werden mit 2 ml 30 mM Ammoniumformiat (pH 6,0) direkt in Minivials eluiert, in die noch 2 ml Szintillatorflüssigkeit zur Zählung gegeben wird.
Die für die erfindungsgemäßen Verbindungen ermittelten Hemmwerte ergeben sich aus der folgenden Tabelle A, in der die Nummern der Verbindungen den Nummern der Beispiele entsprechen. Tabelle A

Structure (SMILES)	PDE 4 -logIC50
COc1ccc(C(O)Cc2ccncc2)c2c1OC1(C=C2)CCCC1 (racemic) [Verbindung 1, (±)-Spiro{5-[1-Hydroxy-2-(pyrid-4-yl)ethyl]-8-methoxy-[2H]chromen-2,1'-Cyclopentan}]	5,88
COc1ccc(CC(C#N)c2ccncc2)c2c1OC1(CCCC1)CC2 (racemic) [Verbindung 8, (±)-Spiro{5-[2-Cyano-2-(pyrid-4-yl)ethyl]-8-methoxychroman}]	6,95
COc1ccc(CC(C#N)c2ccncc2)c2c1OC(C)(C)CC2 (racemic) [Verbindung 9, (±)-5-[2-Cyano-2-(pyrid-4-yl)ethyl]-8-methoxy-2,2-dimethylchroman]	7,01
COc1ccc(CC(C#N)c2ccccn2)c2c1OC(C)(C)CC2 (racemic) [Verbindung 10, (±)-5-[2-Cyano-2-(pyrid-2-yl)ethyl]-8-methoxy-2,2-dimethylchroman]	6,76
COc1ccc(/C=C/c2ccncc2)c2c1OC1(C=C2)CCCC1 [Verbindung 2, (E)-Spiro{5-[2-(pyrid-4-yl)ethenyl]-8-methoxy-[2H]chromen-2,1'-Cyclopentan}]	7,10
COc1ccc(CCc2ccncc2)c2c1OC1(CCCC1)CC2 [Verbindung 3, Spiro{5-[2-(pyrid-4-yl)ethyl]-8-methoxychroman-2.1'-Cyclopentan}]	7,59
COc1ccc(/C=C(\C#N)c2ccncc2)c2c1OC1(C=C2)CCCC1 [Verbindung 4, (Z)-Spiro{5-[2-Cyano-2-(pyrid-4-yl)ethenyl]-8-methoxy-[2H]chromen-2.1'-Cyclopentan}]	6,12
COc1ccc(/C=C(\C#N)c2ccncc2)c2c1OC(C)(C)C=C2 [Verbindung 5, (Z)-5-[2-Cyano-2-(pyrid-4-yl)ethenyl]-8-methoxy-2,2-dimethyl-[2H]chromen]	6,73
COc1ccc(/C=C(\C#N)c2cccnc2)c2c1OC(C)(C)C=C2 [Verbindung 6, (Z)-5-[2-Cyano-2-(pyrid-3-yl)ethenyl]-8-methoxy-2,2-dimethyl-[2H]chromen]	6,36
COc1ccc(/C=C(\C#N)c2ccccn2)c2c1OC(C)(C)C=C2 [Verbindung 7, (Z)-5-[2-Cyano-2-(pyrid-2-yl)ethenyl]-8-methoxy-2,2-dimethyl-[2H]chromen]	5,95
